The text below walks through data of PMC12655758, “Identification of KKL-35 as a Novel Carnosine Dipeptidase 2 (CNDP2) Inhibitor by In Silico Screening” (Molecules, 2025).

Like-named read-outs stand apart in the source and are kept apart here.

Common to all, as to assay type: biochemical
The target in assay [1] is T1, Carnosine dipeptidase 2 (CNDP2) (Mus musculus, UniProt Q9D1A2).
T1 sequence (Q9D1A2 1-475): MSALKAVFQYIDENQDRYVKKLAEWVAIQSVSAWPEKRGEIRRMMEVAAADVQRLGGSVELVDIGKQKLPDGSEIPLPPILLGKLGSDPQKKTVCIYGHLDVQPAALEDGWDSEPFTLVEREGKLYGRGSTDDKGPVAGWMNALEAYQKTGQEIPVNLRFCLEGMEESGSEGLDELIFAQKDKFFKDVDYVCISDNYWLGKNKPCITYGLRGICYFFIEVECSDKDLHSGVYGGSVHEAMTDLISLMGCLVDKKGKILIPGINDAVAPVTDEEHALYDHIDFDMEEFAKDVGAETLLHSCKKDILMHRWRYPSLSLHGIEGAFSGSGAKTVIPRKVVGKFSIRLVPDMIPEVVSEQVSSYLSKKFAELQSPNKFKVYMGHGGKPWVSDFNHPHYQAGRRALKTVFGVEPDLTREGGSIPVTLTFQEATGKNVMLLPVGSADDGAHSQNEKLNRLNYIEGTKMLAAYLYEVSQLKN
Nature of the assay: LC-MS assay of Cys-Gly hydrolysis by purified CNDP2 (Cys-NEM readout; IC50 […] by Gly).

Assay [2] concerns the target T1, Carnosine dipeptidase 2 (CNDP2). The assay can be described thus: LC-MS detection of Cys-NEM and Gly products from Cys-Gly ([…]) hydrolysed by purified CNDP2.
The target is the same in assay [3]. Nature of the assay: LC-MS assay of Cys-Gly hydrolysis by purified CNDP2 (Cys-NEM readout; IC50 […] by Gly). The source holds these as a separate data set.

Usually IC50 stands for the point on the concentration scale where inhibition reaches its midpoint. Higher therefore signals weaker potency. Regarding `CC(C)C[C@H](NC(=O)[C@@H](O)[C@H](N)Cc1ccccc1)C(=O)O` [Bestatin], the midpoint of inhibition in assay [1], the IC50, lay at 1 µM. Take `N[C@@H](CS)C(=O)NCC(=O)O` [Cys-Gly]: the “LC-MS detection of Cys-NEM and Gly products from Cys-Gly (5 mM) hydrolysed by pu” value in assay [2] is “Cys-Gly was hydrolyzed by CNDP2 to produce cysteine (Cys) and glycine (Gly)”. Take `O=C(Nc1nnc(-c2ccc(F)cc2)o1)c1ccc(Cl)cc1` [KKL-35]: the IC50 in assay [3] is 118 µM.
